Reference: the NIST ThermoML archive (doi:10.1016/j.fluid.2007.08.001)
Numbers after ± are expanded uncertainties.

Conditions: Liquid; for mass density: 303.15 K, 95.3 kPa, Pycnometric method

| SMILES | mass density [kg/m3] | also measured |
| --- | --- | --- |
| Clc1ccccc1 [chlorobenzene] | 1095.52 ± 1.1 | vapor or sublimation pressure (402.35 K): 95.3 ± 1.9 kPa |
| O=[N+]([O-])c1ccccc1 [nitrobenzene] | 1193.4 ± 1.3 | vapor or sublimation pressure (483.05 K): 95.3 ± 1.9 kPa |
| C[S+](C)[O-] [dimethyl sulfoxide] | 1092.4 ± 1.1 | vapor or sublimation pressure (460.95 K): 95.3 ± 1.9 kPa |
| CCc1ccccc1 [ethylbenzene] | 858.2 ± 0.86 | vapor or sublimation pressure (406.95 K): 95.3 ± 1.9 kPa |
| Brc1ccccc1 [bromobenzene] | 1481.48 ± 1.7 | vapor or sublimation pressure (426.85 K): 95.3 ± 1.9 kPa |
| Cc1ccccc1 [toluene] | 857.66 ± 0.86 | vapor or sublimation pressure (381.65 K): 95.3 ± 1.9 kPa |
